In ChEMBL document CHEMBL3991601, “The target landscape of clinical kinase drugs” (Science, 2017) one finds Kd data, which are given here for 27 compounds.

The source made the active and inactive calls. For most assays here, no stated cut-off is given here; in the data, actives have a measured Kd and inactives only a lower limit. A value given as a limit tells only on which side of the number the result lay.

Assay [1] deals with T1, TGF-beta receptor type-1 (Homo sapiens, UniProt P36897).
T1 sequence (P36897 whole entry): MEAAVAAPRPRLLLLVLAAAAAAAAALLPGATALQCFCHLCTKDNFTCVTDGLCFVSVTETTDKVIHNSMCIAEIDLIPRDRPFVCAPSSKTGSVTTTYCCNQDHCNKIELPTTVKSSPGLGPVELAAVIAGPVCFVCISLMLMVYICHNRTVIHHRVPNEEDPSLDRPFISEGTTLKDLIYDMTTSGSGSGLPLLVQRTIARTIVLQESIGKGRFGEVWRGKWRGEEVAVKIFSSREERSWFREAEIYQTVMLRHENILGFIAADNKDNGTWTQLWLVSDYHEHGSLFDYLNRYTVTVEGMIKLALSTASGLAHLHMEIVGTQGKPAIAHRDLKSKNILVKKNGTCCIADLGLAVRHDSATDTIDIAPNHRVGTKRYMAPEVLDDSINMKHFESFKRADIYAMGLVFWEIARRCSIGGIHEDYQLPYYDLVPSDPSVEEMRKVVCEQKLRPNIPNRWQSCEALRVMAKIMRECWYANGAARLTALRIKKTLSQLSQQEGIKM

The target in assay [2] is T2, Serine/threonine-protein kinase TAO2 (Homo sapiens, UniProt Q9UL54).
T2 sequence (Q9UL54 whole entry): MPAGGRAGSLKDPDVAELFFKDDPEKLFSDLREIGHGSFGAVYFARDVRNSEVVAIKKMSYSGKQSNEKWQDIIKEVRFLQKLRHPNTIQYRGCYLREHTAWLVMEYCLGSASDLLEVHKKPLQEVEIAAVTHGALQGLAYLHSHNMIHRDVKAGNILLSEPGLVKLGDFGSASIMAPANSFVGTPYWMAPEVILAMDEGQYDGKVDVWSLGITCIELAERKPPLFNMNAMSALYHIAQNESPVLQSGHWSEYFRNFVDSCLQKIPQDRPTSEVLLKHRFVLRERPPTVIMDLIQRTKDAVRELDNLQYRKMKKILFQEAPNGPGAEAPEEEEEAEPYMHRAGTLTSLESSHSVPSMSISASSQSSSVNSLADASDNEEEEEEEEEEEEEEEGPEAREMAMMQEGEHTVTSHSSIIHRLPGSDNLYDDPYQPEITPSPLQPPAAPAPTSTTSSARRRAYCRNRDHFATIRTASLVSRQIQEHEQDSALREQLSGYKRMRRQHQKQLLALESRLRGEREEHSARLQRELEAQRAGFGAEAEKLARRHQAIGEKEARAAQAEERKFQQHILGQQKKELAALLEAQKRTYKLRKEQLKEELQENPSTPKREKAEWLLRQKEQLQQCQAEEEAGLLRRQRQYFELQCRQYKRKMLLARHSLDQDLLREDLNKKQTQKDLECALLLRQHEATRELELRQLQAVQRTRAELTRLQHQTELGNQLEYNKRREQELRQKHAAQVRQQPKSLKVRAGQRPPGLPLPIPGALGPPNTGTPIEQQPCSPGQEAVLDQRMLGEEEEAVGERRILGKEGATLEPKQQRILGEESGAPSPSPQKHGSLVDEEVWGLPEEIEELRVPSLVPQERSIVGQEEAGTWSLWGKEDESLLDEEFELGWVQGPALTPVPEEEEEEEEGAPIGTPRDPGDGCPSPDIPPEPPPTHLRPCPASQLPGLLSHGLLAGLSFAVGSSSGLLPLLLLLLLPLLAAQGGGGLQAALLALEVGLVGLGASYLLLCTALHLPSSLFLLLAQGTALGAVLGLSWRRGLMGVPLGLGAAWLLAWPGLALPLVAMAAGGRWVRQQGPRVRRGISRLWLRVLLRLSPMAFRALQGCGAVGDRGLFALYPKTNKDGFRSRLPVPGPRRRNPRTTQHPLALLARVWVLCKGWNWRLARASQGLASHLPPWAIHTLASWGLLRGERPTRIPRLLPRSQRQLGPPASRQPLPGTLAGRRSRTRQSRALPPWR

Assay [3] deals with T3, Long-chain-fatty-acid--CoA ligase 5 (Homo sapiens, UniProt Q9ULC5).
T3 sequence (Q9ULC5 whole entry): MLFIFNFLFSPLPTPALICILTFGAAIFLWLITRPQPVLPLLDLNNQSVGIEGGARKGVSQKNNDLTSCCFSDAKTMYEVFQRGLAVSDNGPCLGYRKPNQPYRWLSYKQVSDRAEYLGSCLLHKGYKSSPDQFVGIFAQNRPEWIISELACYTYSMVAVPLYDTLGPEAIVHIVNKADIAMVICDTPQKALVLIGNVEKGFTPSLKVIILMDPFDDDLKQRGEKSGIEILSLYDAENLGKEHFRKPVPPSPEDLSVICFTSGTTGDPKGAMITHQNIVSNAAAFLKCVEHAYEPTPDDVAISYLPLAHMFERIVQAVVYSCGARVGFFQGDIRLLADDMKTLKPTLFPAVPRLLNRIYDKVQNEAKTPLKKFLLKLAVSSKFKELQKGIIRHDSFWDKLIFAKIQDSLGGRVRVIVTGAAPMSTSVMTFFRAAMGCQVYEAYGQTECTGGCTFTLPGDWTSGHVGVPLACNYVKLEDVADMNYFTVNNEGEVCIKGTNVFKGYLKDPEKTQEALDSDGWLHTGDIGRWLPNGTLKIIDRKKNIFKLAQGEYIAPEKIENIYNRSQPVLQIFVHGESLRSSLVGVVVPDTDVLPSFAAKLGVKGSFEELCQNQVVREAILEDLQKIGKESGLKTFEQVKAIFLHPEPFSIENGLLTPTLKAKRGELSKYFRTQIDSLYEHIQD

In the case of `C[C@@H]1COC(Nc2ccc3ncnc(Nc4ccc(OCc5nccs5)c(Cl)c4)c3c2)=N1` [VARLITINIB], the Kd in assay [1], in assay [2] and in assay [3] was > 30 µM (inactive) in each case.

Regarding `NC(=O)c1ccc(N(C(N)=O)c2c(F)cccc2F)nc1-c1ccc(F)cc1F` [VX-702], the Kd in assay [1], in assay [2] and in assay [3] was > 30 µM (inactive) in each case.

For the compound `CCN(CCCOc1ccc2c(Nc3cc(CC(=O)Nc4cccc(F)c4)n[nH]3)ncnc2c1)CCOP(=O)(O)O` [BARASERTIB], the Kd in assay [1], in assay [2] and in assay [3] was > 30 µM (inactive) each time.

On to `COCCN1CCN(Cc2ccc(-c3n[nH]c4c3C(=O)c3c(NC(=O)NN5CCOCC5)cccc3-4)cc2)CC1` [RGB-286638], for which the Kd in assay [1], in assay [2] and in assay [3] was > 30 µM (inactive) each time.

Consider `COc1cccc(Nc2ncnn3ccc(CN4CC[C@@H](N)[C@H](O)C4)c23)c1` [BMS-690514], for which the Kd is 1.23 µM (active) in assay [1], > 30 µM (inactive) in assay [2] and > 30 µM (inactive) in assay [3].

Turning to `COc1cc(Nc2ncc(F)c(Nc3ccc4c(n3)N(COP(=O)(O)O)C(=O)C(C)(C)O4)n2)cc(OC)c1OC` [FOSTAMATINIB], the Kd in assay [1], in assay [2] and in assay [3] was > 30 µM (inactive) in each case.

For `C#Cc1cccc(Nc2ncnc3cc4c(cc23)OCCOCCOCCO4)c1` [ICOTINIB], the Kd in assay [1], in assay [2] and in assay [3] was > 30 µM (inactive) each time.

`Cn1cc(-c2[nH]c3cc(NC(=O)[C@H](N)C4CCCCC4)cc4c3c2C=NNC4=O)cn1`: the Kd in assay [1], in assay [2] and in assay [3] was > 30 µM (inactive) in each case.

Turning to `FC(F)(F)c1ccc(CNc2ccc(Cc3c[nH]c4ncc(Cl)cc34)cn2)cn1` [PEXIDARTINIB], the Kd in assay [1], in assay [2] and in assay [3] was > 30 µM (inactive) in each case.

On to `CC(C)(O)CC(=O)NCCn1ccc2ncnc(Nc3ccc(Oc4cccc(C(F)(F)F)c4)c(Cl)c3)c21` [TAK-285], for which the Kd in assay [1], in assay [2] and in assay [3] was > 30 µM (inactive) in each case.

Take `Cc1cc(C(=O)Nc2cc(Oc3ccc4nc(NC(=O)C5CC5)cn4n3)ccc2C)n(C)n1` [TAK-593]: the Kd in assay [1], in assay [2] and in assay [3] was > 30 µM (inactive) each time.

For `C=CCn1c(=O)c2cnc(Nc3ccc(N4CCN(C)CC4)cc3)nc2n1-c1cccc(C(C)(C)O)n1` [ADAVOSERTIB], the Kd in assay [1], in assay [2] and in assay [3] was > 30 µM (inactive) throughout.

For `CCc1nc(C(N)=O)c(Nc2ccc(N3CCC(N4CCN(C)CC4)CC3)c(OC)c2)nc1NC1CCOCC1` [GILTERITINIB], the figures for the Kd in assay [1], in assay [2] and in assay [3] were > 30 µM (inactive), 2.09 µM (active) and 0.208 µM, respectively.

As to `NC[C@@](O)(c1ccc(Cl)cc1)c1ccc(-c2cn[nH]c2)cc1` [AT-13148], the Kd in assay [1], in assay [2] and in assay [3] was > 30 µM (inactive) in each case.

Turning to `CCOc1ccn(-c2ccc(F)cc2)c(=O)c1C(=O)Nc1ccc(Oc2ccnc(N)c2Cl)c(F)c1` [BMS-777607], the Kd in assay [1], in assay [2] and in assay [3] was > 30 µM (inactive) each time.

As to `COc1cc(F)c(F)c(Nc2ccc(I)cc2F)c1NS(=O)(=O)C1(C[C@H](O)CO)CC1` [REFAMETINIB], the Kd in assay [1], in assay [2] and in assay [3] was > 30 µM (inactive) throughout.

Consider `COc1cc2ncnc3c2cc1OCCCCCN(C)Cc1ccc(Br)cc1N3` [JNJ-26483327], for which the Kd in assay [1], in assay [2] and in assay [3] was > 30 µM (inactive) each time.

As to `COc1cc2ncnc(Nc3ccc(F)c(Cl)c3)c2cc1NC(=O)/C=C/CN1CCCCC1` [DACOMITINIB ANHYDROUS], the Kd in assay [1], in assay [2] and in assay [3] was > 30 µM (inactive) throughout.

With `O=S(=O)(c1cccc2cnccc12)N1CCCNCC1` [FASUDIL], the Kd in assay [1], in assay [2] and in assay [3] was > 30 µM (inactive) throughout.

As for `Cc1c(NC(=O)OC[C@@H]2COCCN2)cn2ncnc(Nc3ccc4c(cnn4Cc4cccc(F)c4)c3)c12` [AC-480], the Kd in assay [1], in assay [2] and in assay [3] was > 30 µM (inactive) each time.

Turning to `Cc1cc(-c2cc(OC(=O)c3ccccc3)ccc2Cl)cc2nnc(Nc3ccc(OCCN4CCCC4)cc3)nc12` [TG100-801], the Kd in assay [1], in assay [2] and in assay [3] was > 30 µM (inactive) in each case.

In the case of `COc1cc2nccc(Oc3ccc(NC(=O)C4(C(=O)Nc5ccc(F)cc5)CC4)cc3)c2cc1OC` [CABOZANTINIB], the Kd in assay [1], in assay [2] and in assay [3] was > 30 µM (inactive) throughout.

For the compound `Cc1c(Cn2c(C)nc3c(C(=O)O)cc(N4CCOCC4)cc32)cccc1C(F)(F)F` [GSK-2636771], the Kd in assay [1], in assay [2] and in assay [3] was > 30 µM (inactive) each time.

Turning to `CNC(=O)c1cc(COc2nnc(Nc3ccc(Cl)cc3)c3ccoc23)ccn1` [TELATINIB], the Kd in assay [1], in assay [2] and in assay [3] was > 30 µM (inactive) throughout.

`CNC(=O)c1cccc(-c2ccc3c(N4CCOC[C@@H]4C)nc(N4CCOC[C@@H]4C)nc3n2)c1` [VISTUSERTIB]: the Kd in assay [1], in assay [2] and in assay [3] was > 30 µM (inactive) in each case.

For the compound `O=C(NC[C@H](O)CO)c1ccncc1Nc1ccc(I)cc1F` [PIMASERTIB], the Kd in assay [1], in assay [2] and in assay [3] was > 30 µM (inactive) in each case.

In the case of `CC1(COc2ccc3c(c2)ncn3-c2ccc3cccc(N4CCC(N)CC4)c3n2)COC1` [CRENOLANIB], the Kd in assay [1], in assay [2] and in assay [3] was > 30 µM (inactive) throughout.
